Measured values as given in PubChem BioAssay (NCI).
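Cells were grown in 96-well plates and exposed to each compound for 48 hours at five concentrations; endpoints were interpolated linearly between bracketing concentrations, or set to the highest concentration if not reached. TGI: total growth inhibition.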

Key:
Assay in all cases: NCI anticancer screen, dose series, 48 h
SK-MEL-28 melanoma = test system: SK-MEL-28 melanoma
M14 melanoma = test system: M14 melanoma
OVCAR-5 ovarian = test system: OVCAR-5 ovarian
HT29 colon = test system: HT29 colon
KM12 colon = test system: KM12 colon
SW-620 colon = test system: SW-620 colon
PC-3 prostate = test system: PC-3 prostate
HCT-15 colon = test system: HCT-15 colon
DU-145 prostate = test system: DU-145 prostate
SR leukemia = test system: SR leukemia
MDA-MB-231 breast = test system: MDA-MB-231 breast
ACHN renal = test system: ACHN renal
SF-268 CNS = test system: SF-268 CNS
RPMI-8226 leukemia = test system: RPMI-8226 leukemia
RXF 393 renal = test system: RXF 393 renal
TK-10 renal = test system: TK-10 renal
SK-MEL-2 melanoma = test system: SK-MEL-2 melanoma
NCI-H23 lung = test system: NCI-H23 lung
K-562 leukemia = test system: K-562 leukemia
SF-295 CNS = test system: SF-295 CNS
NCI/ADR-RES ovarian = test system: NCI/ADR-RES ovarian
IGROV1 ovarian = test system: IGROV1 ovarian
HS 578T breast = test system: HS 578T breast
HCT-116 colon = test system: HCT-116 colon
HL-60(TB) leukemia = test system: HL-60(TB) leukemia
NCI-H226 lung = test system: NCI-H226 lung
SF-539 CNS = test system: SF-539 CNS
MDA-N = test system: MDA-N
EKVX NSCLC = test system: EKVX NSCLC
OVCAR-3 ovarian = test system: OVCAR-3 ovarian
U251 CNS = test system: U251 CNS
MCF7 breast = test system: MCF7 breast
CAKI-1 renal = test system: CAKI-1 renal
SNB-75 CNS = test system: SNB-75 CNS
COLO 205 colon = test system: COLO 205 colon
UACC-257 melanoma = test system: UACC-257 melanoma
MDA-MB-435 = test system: MDA-MB-435
MALME-3M melanoma = test system: MALME-3M melanoma
HOP-62 NSCLC = test system: HOP-62 NSCLC
UACC-62 melanoma = test system: UACC-62 melanoma
786-0 renal = test system: 786-0 renal
BT-549 breast = test system: BT-549 breast
OVCAR-8 ovarian = test system: OVCAR-8 ovarian
UO-31 renal = test system: UO-31 renal
T-47D breast = test system: T-47D breast
MOLT-4 leukemia = test system: MOLT-4 leukemia
SN12C renal = test system: SN12C renal
CCRF-CEM leukemia = test system: CCRF-CEM leukemia
SK-MEL-5 melanoma = test system: SK-MEL-5 melanoma
SNB-19 CNS = test system: SNB-19 CNS
LOX IMVI melanoma = test system: LOX IMVI melanoma
SK-OV-3 ovarian = test system: SK-OV-3 ovarian
A498 renal = test system: A498 renal
OVCAR-4 ovarian = test system: OVCAR-4 ovarian
A549 NSCLC = test system: A549 NSCLC
NCI-H522 lung = test system: NCI-H522 lung
NCI-H460 lung = test system: NCI-H460 lung

## COc1cc(C2OC(N)=C(C#N)C3=C2C(C)CCC3)cc(OC)c1OC (stereo not given)
SK-MEL-28 melanoma
  TGI: > 100 µM
M14 melanoma
  TGI: > 100 µM
OVCAR-5 ovarian
  TGI: > 100 µM
HT29 colon
  TGI: > 100 µM
KM12 colon
  TGI: > 100 µM
SW-620 colon
  TGI: > 100 µM
PC-3 prostate
  TGI: > 100 µM
HCT-15 colon
  TGI: > 100 µM
DU-145 prostate
  TGI: > 100 µM
SR leukemia
  TGI: > 100 µM
MDA-MB-231 breast
  TGI: > 100 µM
ACHN renal
  TGI: > 100 µM
SF-268 CNS
  TGI: > 100 µM
RPMI-8226 leukemia
  TGI: > 100 µM
RXF 393 renal
  TGI: > 100 µM
TK-10 renal
  TGI: > 100 µM
SK-MEL-2 melanoma
  TGI: > 100 µM
NCI-H23 lung
  TGI: > 100 µM
K-562 leukemia
  TGI: > 100 µM
SF-295 CNS
  TGI: > 100 µM
NCI/ADR-RES ovarian
  TGI: > 100 µM
IGROV1 ovarian
  TGI: > 100 µM
HS 578T breast
  TGI: > 100 µM
HCT-116 colon
  TGI: > 100 µM
HL-60(TB) leukemia
  TGI: > 100 µM
NCI-H226 lung
  TGI: > 100 µM
SF-539 CNS
  TGI: > 100 µM
MDA-N
  TGI: > 100 µM
EKVX NSCLC
  TGI: > 100 µM
OVCAR-3 ovarian
  TGI: > 100 µM
U251 CNS
  TGI: > 100 µM
MCF7 breast
  TGI: > 100 µM
CAKI-1 renal
  TGI: > 100 µM
SNB-75 CNS
  TGI: 94.8 µM
COLO 205 colon
  TGI: > 100 µM
UACC-257 melanoma
  TGI: > 100 µM
MDA-MB-435
  TGI: > 100 µM
MALME-3M melanoma
  TGI: > 100 µM
HOP-62 NSCLC
  TGI: 40.7 µM
UACC-62 melanoma
  TGI: > 100 µM
786-0 renal
  TGI: > 100 µM
BT-549 breast
  TGI: > 100 µM
OVCAR-8 ovarian
  TGI: > 100 µM
UO-31 renal
  TGI: > 100 µM
T-47D breast
  TGI: > 100 µM
MOLT-4 leukemia
  TGI: > 100 µM
SN12C renal
  TGI: > 100 µM
CCRF-CEM leukemia
  TGI: > 100 µM
SK-MEL-5 melanoma
  TGI: > 100 µM
SNB-19 CNS
  TGI: > 100 µM
LOX IMVI melanoma
  TGI: > 100 µM
SK-OV-3 ovarian
  TGI: > 100 µM

## CCCCCCn1c(SC)nc(COC(=O)NC)c1COC(=O)NC
SK-MEL-28 melanoma
  TGI: 32.4 µM
M14 melanoma
  TGI: 38.8 µM
OVCAR-5 ovarian
  TGI: 34.6 µM
A498 renal
  TGI: 30.8 µM
HT29 colon
  TGI: 36.2 µM
KM12 colon
  TGI: 32.6 µM
SW-620 colon
  TGI: 64.4 µM
PC-3 prostate
  TGI: 31.8 µM
OVCAR-4 ovarian
  TGI: 21.4 µM
HCT-15 colon
  TGI: > 100 µM
DU-145 prostate
  TGI: 30.1 µM
SR leukemia
  TGI: 71.7 µM
MDA-MB-231 breast
  TGI: 32.8 µM
A549 NSCLC
  TGI: 31.5 µM
ACHN renal
  TGI: 30.5 µM
SF-268 CNS
  TGI: 30.6 µM
RPMI-8226 leukemia
  TGI: 67.7 µM
TK-10 renal
  TGI: 31.2 µM
SK-MEL-2 melanoma
  TGI: 49.9 µM
NCI-H23 lung
  TGI: 41.2 µM
K-562 leukemia
  TGI: > 100 µM
SF-295 CNS
  TGI: 35.1 µM
NCI/ADR-RES ovarian
  TGI: 69.3 µM
IGROV1 ovarian
  TGI: 30.5 µM
NCI-H522 lung
  TGI: 23.5 µM
HS 578T breast
  TGI: 40.3 µM
HCT-116 colon
  TGI: 31.7 µM
HL-60(TB) leukemia
  TGI: 56 µM
NCI-H226 lung
  TGI: 33.3 µM
SF-539 CNS
  TGI: 32.4 µM
MDA-N
  TGI: 36.1 µM
EKVX NSCLC
  TGI: 27.1 µM
OVCAR-3 ovarian
  TGI: 33.5 µM
MCF7 breast
  TGI: 38 µM
CAKI-1 renal
  TGI: 29.1 µM
SNB-75 CNS
  TGI: 27.8 µM
NCI-H460 lung
  TGI: 37.3 µM
COLO 205 colon
  TGI: 29.2 µM
UACC-257 melanoma
  TGI: 37.8 µM
MDA-MB-435
  TGI: 41.9 µM
HOP-62 NSCLC
  TGI: 37.1 µM
UACC-62 melanoma
  TGI: 28.2 µM
786-0 renal
  TGI: 30.3 µM
BT-549 breast
  TGI: 34 µM
OVCAR-8 ovarian
  TGI: 34.3 µM
UO-31 renal
  TGI: 31.3 µM
T-47D breast
  TGI: 35 µM
MOLT-4 leukemia
  TGI: 53.8 µM
SN12C renal
  TGI: 31.3 µM
SK-MEL-5 melanoma
  TGI: 30.3 µM
SNB-19 CNS
  TGI: 29.8 µM
LOX IMVI melanoma
  TGI: > 100 µM
SK-OV-3 ovarian
  TGI: 33.2 µM
